Values quoted from earlier work in US8092822B2, “Coatings including dexamethasone derivatives and analogs and olimus drugs” (Abbott Cardiovascular Systems Inc., priority 2008, dated 2012).

Columns and labels:
[1] = test system: endothelial cell proliferation
[2] = test system: human coronary artery endothelial cells; conditions: in vitro
[3] = test system: endothelial migration

Row | Compound | inhibition of endothelial cell proliferation [1] | inhibition of migration of human coronary artery endothelial cells [2] | effect on endothelial migration [3]
1 | CC(=O)O[C@H]1C(=O)[C@@]2(C)[C@H]([C@H](OC(=O)c3ccccc3)[C@]3(O)C[C@H](OC(=O)[C@H](O)[C@@H](NC(=O)c4ccccc4)c4ccccc4)C(C)=C1C3(C)C)[C@]1(OC(C)=O)CO[C@@H]1C[C@@H]2O [paclitaxel, Paclitaxel] | inhibit | inhibits | –
2 | C[C@@H]1C[C@H]2[C@@H]3CCC4=CC(=O)C=C[C@]4(C)[C@@]3(F)[C@@H](O)C[C@]2(C)[C@@]1(O)C(=O)CO [dexamethasone, Dexamethasone] | – | – | positive effect
3 | CO[C@H]1C[C@@H]2CC[C@@H](C)[C@@](O)(O2)C(=O)C(=O)N2CCCC[C@H]2C(=O)O[C@H]([C@H](C)C[C@@H]2CC[C@H](n3cnnn3)[C@H](OC)C2)CC(=O)[C@H](C)/C=C(\C)[C@@H](O)[C@@H](OC)C(=O)[C@H](C)C[C@H](C)/C=C/C=C/C=C/1C [zotarolimus] | inhibit | – | –
